Drawing on patent US8450315B2, “Phosphoinositide 3-kinase inhibitor compounds and methods of use” (Genentech, Inc., priority 2006, dated 2013), this text covers alpha/gamma, alpha/delta and alpha/beta for 25 molecules.

Structures are written as SMILES.

What all share (assay type): biochemical
Assay [1] deals with human PI3K isoform gamma (p110 gamma) (Homo sapiens, UniProt P48736). The experiment in a line: p110 isoform selectivity scintillation proximity assay (SPA), gamma isoform. The conditions noted are these: fold potency over gamma relative to alpha, calculated from IC50 values (SPA). How it is done: (§1) Binding of Formula Ia and Ib compounds from Tables 1a and 1b to purified preparations of p110 isoforms alpha, beta, delta, and gamma was measured by a Scintillation Proximity Assay (SPA) to determine binding activity (IC50 μMol) and selectivity of binding of beta, delta, and gamma isoforms relative to alpha (Example 365). These values are expressed in Table 2.
Sequence of human PI3K isoform gamma (p110 gamma) (P48736 whole entry, canonical isoform): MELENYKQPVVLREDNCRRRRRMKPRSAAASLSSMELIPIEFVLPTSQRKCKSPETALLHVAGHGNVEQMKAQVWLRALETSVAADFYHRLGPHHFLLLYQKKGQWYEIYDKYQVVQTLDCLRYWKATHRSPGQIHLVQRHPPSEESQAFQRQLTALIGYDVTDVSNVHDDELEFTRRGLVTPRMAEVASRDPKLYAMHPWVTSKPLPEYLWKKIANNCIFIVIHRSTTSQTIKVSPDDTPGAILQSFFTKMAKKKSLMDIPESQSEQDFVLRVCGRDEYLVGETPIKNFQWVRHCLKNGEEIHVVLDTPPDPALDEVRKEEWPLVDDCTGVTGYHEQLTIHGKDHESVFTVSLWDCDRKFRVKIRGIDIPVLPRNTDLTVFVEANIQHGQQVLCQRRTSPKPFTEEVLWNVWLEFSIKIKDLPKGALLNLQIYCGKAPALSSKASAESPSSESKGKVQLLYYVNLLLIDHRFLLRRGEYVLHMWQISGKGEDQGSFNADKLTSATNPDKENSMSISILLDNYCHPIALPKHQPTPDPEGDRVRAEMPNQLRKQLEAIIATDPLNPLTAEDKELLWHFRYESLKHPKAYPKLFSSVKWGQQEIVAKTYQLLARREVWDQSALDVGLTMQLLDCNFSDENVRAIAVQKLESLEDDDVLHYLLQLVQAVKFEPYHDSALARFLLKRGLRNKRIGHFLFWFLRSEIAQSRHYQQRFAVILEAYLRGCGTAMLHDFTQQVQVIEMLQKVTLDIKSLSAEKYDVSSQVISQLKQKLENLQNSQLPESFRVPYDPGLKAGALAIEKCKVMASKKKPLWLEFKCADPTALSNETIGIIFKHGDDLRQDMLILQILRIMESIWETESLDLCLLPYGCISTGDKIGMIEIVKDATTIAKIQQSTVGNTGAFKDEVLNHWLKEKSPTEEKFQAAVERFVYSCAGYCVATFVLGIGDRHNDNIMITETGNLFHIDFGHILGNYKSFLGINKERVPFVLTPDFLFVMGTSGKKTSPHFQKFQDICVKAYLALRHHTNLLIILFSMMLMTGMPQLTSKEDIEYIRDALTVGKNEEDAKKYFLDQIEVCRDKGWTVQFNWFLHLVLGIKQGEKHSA
(§2) The ability of Formula Ia and Ib compounds from Tables 1a and 1b to inhibit the lipid kinase activity of purified preparations of human PI3K isoforms alpha, beta, delta, and gamma was determined by a radiometric scintillation proximity assay (SPA, GE Healthcare, Amersham Biosciences). Concentration dependent inhibition at 50% (IC50 μMol) was determined for all four isoforms […] and fold potency over beta, delta, and gamma relative to alpha was calculated for a selection of compounds in Table 2. Each compound has a p110 alpha IC50<1 μMol.

The target in assay [2] is human PI3K isoform delta (p110 delta) (Homo sapiens, UniProt O00329). The assay can be described thus: p110 isoform selectivity scintillation proximity assay (SPA), delta isoform. The conditions noted are these: fold potency over delta relative to alpha, calculated from IC50 values (SPA). How it is done: as §1, §2
Sequence of human PI3K isoform delta (p110 delta) (O00329 whole entry, canonical isoform): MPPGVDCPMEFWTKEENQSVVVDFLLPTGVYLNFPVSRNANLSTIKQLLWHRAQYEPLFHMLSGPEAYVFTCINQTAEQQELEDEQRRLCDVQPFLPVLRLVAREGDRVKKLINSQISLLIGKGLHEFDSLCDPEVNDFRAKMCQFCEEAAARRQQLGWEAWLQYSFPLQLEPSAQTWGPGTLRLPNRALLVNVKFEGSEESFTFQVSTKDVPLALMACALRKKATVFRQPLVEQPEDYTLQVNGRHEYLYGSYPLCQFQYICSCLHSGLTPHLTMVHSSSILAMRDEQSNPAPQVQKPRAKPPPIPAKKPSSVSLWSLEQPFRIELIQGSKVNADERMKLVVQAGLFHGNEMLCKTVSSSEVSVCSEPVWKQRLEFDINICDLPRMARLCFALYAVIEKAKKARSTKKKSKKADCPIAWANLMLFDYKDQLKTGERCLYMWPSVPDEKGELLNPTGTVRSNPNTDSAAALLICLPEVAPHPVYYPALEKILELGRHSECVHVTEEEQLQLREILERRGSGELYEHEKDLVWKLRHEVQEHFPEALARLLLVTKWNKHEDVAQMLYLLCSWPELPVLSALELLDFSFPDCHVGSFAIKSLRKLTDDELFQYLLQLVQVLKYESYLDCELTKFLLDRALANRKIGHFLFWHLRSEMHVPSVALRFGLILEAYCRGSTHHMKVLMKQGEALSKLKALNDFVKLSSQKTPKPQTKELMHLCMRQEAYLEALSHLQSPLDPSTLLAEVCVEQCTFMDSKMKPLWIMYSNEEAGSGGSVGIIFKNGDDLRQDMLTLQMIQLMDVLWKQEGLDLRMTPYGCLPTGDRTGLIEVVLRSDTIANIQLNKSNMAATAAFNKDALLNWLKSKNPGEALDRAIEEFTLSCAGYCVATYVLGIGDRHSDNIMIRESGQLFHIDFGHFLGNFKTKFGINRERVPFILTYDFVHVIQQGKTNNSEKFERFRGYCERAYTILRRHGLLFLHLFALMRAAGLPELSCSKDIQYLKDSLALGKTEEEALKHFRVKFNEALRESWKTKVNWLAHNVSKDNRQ
Sequence of human PI3K isoform delta (p110 delta) (P27986 whole entry partner, canonical isoform): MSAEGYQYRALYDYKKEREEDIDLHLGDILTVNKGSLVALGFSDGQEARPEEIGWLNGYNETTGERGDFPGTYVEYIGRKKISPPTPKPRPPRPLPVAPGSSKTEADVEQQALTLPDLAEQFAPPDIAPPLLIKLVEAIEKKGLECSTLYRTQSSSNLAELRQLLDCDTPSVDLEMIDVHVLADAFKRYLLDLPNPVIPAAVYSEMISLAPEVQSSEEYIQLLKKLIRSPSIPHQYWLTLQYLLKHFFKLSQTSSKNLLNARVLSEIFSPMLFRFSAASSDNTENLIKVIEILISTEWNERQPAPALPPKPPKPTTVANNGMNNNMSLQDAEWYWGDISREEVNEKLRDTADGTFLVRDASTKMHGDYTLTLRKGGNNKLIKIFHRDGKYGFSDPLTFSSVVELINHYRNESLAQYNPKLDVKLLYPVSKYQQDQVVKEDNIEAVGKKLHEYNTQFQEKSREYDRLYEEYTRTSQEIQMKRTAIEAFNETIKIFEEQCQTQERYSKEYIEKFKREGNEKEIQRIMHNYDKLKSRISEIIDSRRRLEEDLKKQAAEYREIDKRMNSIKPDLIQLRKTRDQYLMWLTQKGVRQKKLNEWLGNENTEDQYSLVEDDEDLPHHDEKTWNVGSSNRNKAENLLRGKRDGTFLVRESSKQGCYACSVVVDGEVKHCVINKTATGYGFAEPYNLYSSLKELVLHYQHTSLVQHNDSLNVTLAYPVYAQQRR
In assay [3] the target is human PI3K isoform beta (p110 beta) (Homo sapiens, UniProt P42338). The experiment in a line: p110 isoform selectivity scintillation proximity assay (SPA), beta isoform. The conditions noted are these: fold potency over beta relative to alpha, calculated from IC50 values (SPA). The protocol: as §1, §2
Sequence of human PI3K isoform beta (p110 beta) (P42338 whole entry, canonical isoform): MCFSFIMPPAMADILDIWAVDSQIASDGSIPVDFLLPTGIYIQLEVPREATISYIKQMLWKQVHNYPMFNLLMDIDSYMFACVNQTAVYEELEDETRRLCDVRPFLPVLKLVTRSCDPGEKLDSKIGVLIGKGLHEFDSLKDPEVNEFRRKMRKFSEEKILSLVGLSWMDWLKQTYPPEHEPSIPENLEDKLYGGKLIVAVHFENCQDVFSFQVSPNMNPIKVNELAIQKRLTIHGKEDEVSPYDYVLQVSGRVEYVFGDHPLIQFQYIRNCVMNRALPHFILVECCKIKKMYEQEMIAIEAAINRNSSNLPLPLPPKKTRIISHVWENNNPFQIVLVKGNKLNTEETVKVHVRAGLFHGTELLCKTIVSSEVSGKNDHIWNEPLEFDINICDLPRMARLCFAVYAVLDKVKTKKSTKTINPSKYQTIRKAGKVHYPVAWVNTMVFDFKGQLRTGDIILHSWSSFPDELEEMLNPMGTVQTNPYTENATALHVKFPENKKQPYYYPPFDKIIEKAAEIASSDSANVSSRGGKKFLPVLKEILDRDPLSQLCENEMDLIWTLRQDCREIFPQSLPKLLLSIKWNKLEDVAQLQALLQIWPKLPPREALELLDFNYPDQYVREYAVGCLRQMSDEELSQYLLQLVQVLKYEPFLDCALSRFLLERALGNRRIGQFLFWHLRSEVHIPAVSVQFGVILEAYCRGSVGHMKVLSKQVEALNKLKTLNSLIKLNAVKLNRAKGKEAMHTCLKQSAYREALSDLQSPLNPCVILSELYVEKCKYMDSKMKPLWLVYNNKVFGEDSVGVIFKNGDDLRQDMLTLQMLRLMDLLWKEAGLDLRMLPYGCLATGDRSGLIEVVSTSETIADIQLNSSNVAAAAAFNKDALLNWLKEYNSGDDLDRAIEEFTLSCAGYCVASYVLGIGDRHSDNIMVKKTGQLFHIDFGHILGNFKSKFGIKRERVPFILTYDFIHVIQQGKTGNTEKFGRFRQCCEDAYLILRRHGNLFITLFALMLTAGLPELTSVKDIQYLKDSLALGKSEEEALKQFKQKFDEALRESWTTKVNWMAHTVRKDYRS
Sequence of human PI3K isoform beta (p110 beta) (P27986 whole entry partner, canonical isoform): as the sequence (P27986 whole entry partner, canonical isoform) above

In the case of `CNC(=O)c1cccc(-c2cc3nc(-c4cccc5[nH]ncc45)nc(N4CCOCC4)c3s2)c1` [Compound 101, 3-(2-(1H-indazol-4-yl)-4-morpholinothieno[3,2-d]pyrimidin-6-yl)-N-methylbenzamide], the alpha/gamma in assay [1] was greater than 10. Besides, the alpha/delta in assay [2] is listed as less than 10. Besides, in assay [3], the alpha/beta is greater than 10.
`OC1(c2cc3nc(-c4cccc5[nH]ncc45)nc(N4CCOCC4)c3s2)CCC1` [Compound 133, 1-(2-(1H-indazol-4-yl)-4-morpholinothieno[3,2-d]pyrimidin-6-yl)cyclobutanol]: the alpha/gamma in assay [1] was greater than 10. Further, in assay [2], the alpha/delta was less than 10. The alpha/beta in assay [3] was less than 10.
In the case of `NCC(=O)Nc1cccc(-c2cc3nc(-c4cccc5[nH]ncc45)nc(N4CCOCC4)c3s2)c1` [Compound 137, N-(3-(2-(1H-indazol-4-yl)-4-morpholinothieno[3,2-d]pyrimidin-6-yl)phenyl)-2-aminoacetamide], the alpha/gamma in assay [1] is reported as less than 10. The alpha/delta in assay [2] is reported as less than 10. In addition, in assay [3], the alpha/beta is given as greater than 10.
`CCNC(=O)c1cc2nc(-c3cccc4[nH]ncc34)nc(N3CCOCC3)c2s1` [Compound 170, N-ethyl-2-(1H-indazol-4-yl)-4-morpholinothieno[3,2-d]pyrimidine-6-carboxamide]: the alpha/gamma in assay [1] is recorded as less than 10. Further, in assay [2], the alpha/delta is reported as less than 10. The alpha/beta in assay [3] is given as less than 10.
For the molecule `O=C(NOCC1CC1)c1cc2nc(-c3cccc4[nH]ncc34)nc(N3CCOCC3)c2s1` [Compound 202, N-(cyclopropylmethoxy)-2-(1H-indazol-4-yl)-4-morpholinothieno[3,2-d]pyrimidine-6-carboxamide], in assay [1], the alpha/gamma was greater than 10. Further, the alpha/delta in assay [2] is reported as less than 10. For the same molecule, in assay [3], the alpha/beta was less than 10.
`c1cc(-c2nc(N3CCOCC3)c3sc(-c4cn[nH]c4)cc3n2)c2cn[nH]c2c1` [Compound 203, 2-(1H-indazol-4-yl)-4-morpholino-6-(1H-pyrazol-4-yl)thieno[3,2-d]pyrimidine]: in assay [1], the alpha/gamma is given as greater than 10. In addition, the alpha/delta in assay [2] is reported as less than 10. Besides, the alpha/beta in assay [3] is less than 10.
On to `C[C@H](O)CNCc1cc2nc(-c3cccc4[nH]ncc34)nc(N3CCOCC3)c2s1` [Compound 205, (S)-1-((2-(1H-indazol-4-yl)-4-morpholinothieno[3,2-d]pyrimidin-6-yl)methylamino)propan-2-ol], for which the alpha/gamma in assay [1] is recorded as greater than 10. The alpha/delta in assay [2] is reported as less than 10. Also, in assay [3], the alpha/beta is reported as less than 10.
In the case of `O=S(=O)(Nc1cccc(O)c1)c1cc2nc(-c3cccc4[nH]ncc34)nc(N3CCOCC3)c2s1` [Compound 208, 6-(3-hydroxyphenylaminosulfonyl)-2-(1H-indazol-4-yl)-4-morpholinothieno[3,2-d]pyrimidine], the alpha/gamma in assay [1] was greater than 10. The alpha/delta in assay [2] was less than 10. Besides, the alpha/beta in assay [3] is listed as greater than 10.
On to `O=S(=O)(NCCN1CCCCC1)c1cc2nc(-c3cccc4[nH]ncc34)nc(N3CCOCC3)c2s1` [Compound 218, 6-(2-piperidinylethylaminosulfonyl)-2-(1H-indazol-4-yl)-4-morpholinothieno[3,2-d]pyrimidine], for which, in assay [1], the alpha/gamma was greater than 10. In addition, in assay [2], the alpha/delta was less than 10. The alpha/beta in assay [3] is given as greater than 10.
As for `OCCNc1cc2nc(-c3cccc4[nH]ncc34)nc(N3CCOCC3)c2s1` [Compound 226, 2-(2-(1H-indazol-4-yl)-4-morpholinothieno[3,2-d]pyrimidin-6-ylamino)ethanol], the alpha/gamma in assay [1] is greater than 10. In assay [2], the alpha/delta is listed as less than 10. The alpha/beta in assay [3] was less than 10.
As to `c1ccc(-c2cc3nc(-c4cccc5[nH]ncc45)nc(N4CCOCC4)c3o2)cc1` [Compound 233, 2-(1H-indazol-4-yl)-4-morpholino-6-phenylfuro[3,2-d]pyrimidine], the alpha/gamma in assay [1] is listed as less than 10. Further, the alpha/delta in assay [2] is on record as less than 10. In assay [3], the alpha/beta is listed as greater than 10.
For the molecule `CC(C)(O)c1cc2nc(-c3cccc4[nH]ncc34)nc(N3CCOCC3)c2s1` [Compound 235, 2-(2-(1H-indazol-4-yl)-4-morpholinothieno[3,2-d]pyrimidin-6-yl)propan-2-ol], the alpha/gamma in assay [1] is listed as greater than 10. Also, the alpha/delta in assay [2] is given as less than 10. Also, in assay [3], the alpha/beta is listed as greater than 10.
On to `OCc1cccc(-c2cc3nc(-c4cccc5[nH]ncc45)nc(N4CCOCC4)c3s2)c1` [Compound 237, (3-(2-(1H-indazol-4-yl)-4-morpholinothieno[3,2-d]pyrimidin-6-yl)phenyl)methanol], for which the alpha/gamma in assay [1] is reported as greater than 10. Moreover, the alpha/delta in assay [2] is given as less than 10. Also, the alpha/beta in assay [3] is greater than 10.
Regarding `CC(=O)Nc1cccc(-c2cc3nc(-c4cccc5[nH]ncc45)nc(N4CCOCC4)c3s2)c1` [Compound 238, N-(3-(2-(1H-indazol-4-yl)-4-morpholinothieno[3,2-d]pyrimidin-6-yl)phenyl)acetamide], the alpha/gamma in assay [1] is greater than 10. In addition, the alpha/delta in assay [2] is less than 10. For the same molecule, the alpha/beta in assay [3] is greater than 10.
In the case of `O=C(NCCN1CCCCC1)c1cc2nc(-c3cccc4[nH]ncc34)nc(N3CCOCC3)c2s1` [Compound 257, 2-(1H-indazol-4-yl)-4-morpholino-N-(2-(piperidin-1-yl)ethyl)thieno[3,2-d]pyrimidine-6-carboxamide], the alpha/gamma in assay [1] is reported as greater than 10. Also, the alpha/delta in assay [2] is reported as less than 10. In addition, the alpha/beta in assay [3] was less than 10.
Turning to `CN(C)C(=O)c1cc2nc(-c3cccc4[nH]ncc34)nc(N3CCOCC3)c2s1` [Compound 263, 2-(1H-indazol-4-yl)-N,N-dimethyl-4-morpholinothieno[3,2-d]pyrimidine-6-carboxamide], the alpha/gamma in assay [1] was greater than 10. The alpha/delta in assay [2] is less than 10. The alpha/beta in assay [3] is less than 10.
For `CS(=O)(=O)c1cccc(-c2cc3nc(-c4cccc5[nH]ncc45)nc(N4CCOCC4)c3s2)c1` [Compound 265, 2-(1H-indazol-4-yl)-6-(3-(methylsulfonyl)phenyl)-4-morpholinothieno[3,2-d]pyrimidine], the alpha/gamma in assay [1] is on record as greater than 10. Also, the alpha/delta in assay [2] was less than 10. Besides, the alpha/beta in assay [3] is listed as greater than 10.
In the case of `CN(C)Cc1cc2nc(-c3cccc4[nH]ncc34)nc(N3CCOCC3)c2s1` [Compound 304, (2-(1H-indazol-4-yl)-4-morpholinothieno[3,2-d]pyrimidin-6-yl)-N,N-dimethylmethanamine], the alpha/gamma in assay [1] is greater than 10. In addition, in assay [2], the alpha/delta is less than 10. Moreover, the alpha/beta in assay [3] is 10.
Turning to `O=C(NCc1cc2nc(-c3cccc4[nH]ncc34)nc(N3CCOCC3)c2s1)N1CCOCC1` [Compound 305, N-((2-(1H-indazol-4-yl)-4-morpholinothieno[3,2-d]pyrimidin-6-yl)methyl)morpholine-4-carboxamide], the alpha/gamma in assay [1] is reported as greater than 10. Further, in assay [2], the alpha/delta was less than 10. Besides, the alpha/beta in assay [3] was less than 10.
Turning to `c1cc(-c2nc(N3CCOCC3)c3sc(Cn4ccnc4)cc3n2)c2cn[nH]c2c1` [Compound 312, 6-((1H-imidazol-1-yl)methyl)-2-(1H-indazol-4-yl)-4-morpholinothieno[3,2-d]pyrimidine], the alpha/gamma in assay [1] is on record as greater than 10. Also, the alpha/delta in assay [2] is less than 10. The alpha/beta in assay [3] was less than 10.
`COC/C=C/c1cc2nc(-c3cccc4[nH]ncc34)nc(N3CCOCC3)c2s1` [Compound 334]: the alpha/gamma in assay [1] was greater than 10. In addition, in assay [2], the alpha/delta is less than 10. For the same molecule, the alpha/beta in assay [3] is listed as greater than 10.
With `C[C@H](O)CNC(=O)c1cccc(-c2cc3nc(-c4cccc5[nH]ncc45)nc(N4CCOCC4)c3s2)c1` [Compound 336, 3-(2-(1H-indazol-4-yl)-4-morpholinothieno[3,2-d]pyrimidin-6-yl)-N-((S)-2-hydroxypropyl)benzamide], the alpha/gamma in assay [1] was greater than 10. Besides, in assay [2], the alpha/delta was less than 10. In assay [3], the alpha/beta was greater than 10.
For the molecule `O=C(O)c1cccc(-c2cc3nc(-c4cccc5[nH]ncc45)nc(N4CCOCC4)c3s2)c1` [Compound 338, 3-(2-(1H-indazol-4-yl)-4-morpholinothieno[3,2-d]pyrimidin-6-yl)benzoic acid], the alpha/gamma in assay [1] is reported as greater than 10. Further, the alpha/delta in assay [2] is less than 10. In addition, the alpha/beta in assay [3] is on record as greater than 10.
For `CS(=O)(=O)N1CCC(C(O)c2cc3nc(-c4cccc5[nH]ncc45)nc(N4CCOCC4)c3s2)CC1` (stereo not drawn) [Compound 353, (2-(1H-indazol-4-yl)-4-morpholinothieno[3,2-d]pyrimidin-6-yl)(4-N-methylsulfonylpiperidin-4-yl)methanol], in assay [1], the alpha/gamma is reported as greater than 10. In addition, in assay [2], the alpha/delta is less than 10. Besides, the alpha/beta in assay [3] is reported as less than 10.
Regarding `Cc1c(-c2cccc(S(C)(=O)=O)c2)sc2c(N3CCOCC3)nc(-c3cccc4[nH]ncc34)nc12` [Compound 360, 2-(1H-indazol-4-yl)-7-methyl-6-(3-(methylsulfonyl)phenyl)-4-morpholinothieno[3,2-d]pyrimidine], the alpha/gamma in assay [1] is listed as greater than 10. Besides, the alpha/delta in assay [2] is greater than 10. Moreover, the alpha/beta in assay [3] is greater than 10.
